Results published in patent US20100184094A1, “USE OF MDCK CELLS IN THE EVALUATION OF CHOLESTEROL MODULATORS” (priority 2007, published 2010).
Each block holds one molecule with its values, some of them ahead of it.

Legend:
[1] = biological target: T1, human NPC1L1 (Homo sapiens, UniProt Q9UHC9); experiment: [3H]AS binding to hNPC1L1/MDCKII-Flp cells; settings: FIG. 7D, read-out: Ki inhibition of [3H]AS binding
T1 construct: expressed in transfected cells
T1 sequence (Q9UHC9 22-1359): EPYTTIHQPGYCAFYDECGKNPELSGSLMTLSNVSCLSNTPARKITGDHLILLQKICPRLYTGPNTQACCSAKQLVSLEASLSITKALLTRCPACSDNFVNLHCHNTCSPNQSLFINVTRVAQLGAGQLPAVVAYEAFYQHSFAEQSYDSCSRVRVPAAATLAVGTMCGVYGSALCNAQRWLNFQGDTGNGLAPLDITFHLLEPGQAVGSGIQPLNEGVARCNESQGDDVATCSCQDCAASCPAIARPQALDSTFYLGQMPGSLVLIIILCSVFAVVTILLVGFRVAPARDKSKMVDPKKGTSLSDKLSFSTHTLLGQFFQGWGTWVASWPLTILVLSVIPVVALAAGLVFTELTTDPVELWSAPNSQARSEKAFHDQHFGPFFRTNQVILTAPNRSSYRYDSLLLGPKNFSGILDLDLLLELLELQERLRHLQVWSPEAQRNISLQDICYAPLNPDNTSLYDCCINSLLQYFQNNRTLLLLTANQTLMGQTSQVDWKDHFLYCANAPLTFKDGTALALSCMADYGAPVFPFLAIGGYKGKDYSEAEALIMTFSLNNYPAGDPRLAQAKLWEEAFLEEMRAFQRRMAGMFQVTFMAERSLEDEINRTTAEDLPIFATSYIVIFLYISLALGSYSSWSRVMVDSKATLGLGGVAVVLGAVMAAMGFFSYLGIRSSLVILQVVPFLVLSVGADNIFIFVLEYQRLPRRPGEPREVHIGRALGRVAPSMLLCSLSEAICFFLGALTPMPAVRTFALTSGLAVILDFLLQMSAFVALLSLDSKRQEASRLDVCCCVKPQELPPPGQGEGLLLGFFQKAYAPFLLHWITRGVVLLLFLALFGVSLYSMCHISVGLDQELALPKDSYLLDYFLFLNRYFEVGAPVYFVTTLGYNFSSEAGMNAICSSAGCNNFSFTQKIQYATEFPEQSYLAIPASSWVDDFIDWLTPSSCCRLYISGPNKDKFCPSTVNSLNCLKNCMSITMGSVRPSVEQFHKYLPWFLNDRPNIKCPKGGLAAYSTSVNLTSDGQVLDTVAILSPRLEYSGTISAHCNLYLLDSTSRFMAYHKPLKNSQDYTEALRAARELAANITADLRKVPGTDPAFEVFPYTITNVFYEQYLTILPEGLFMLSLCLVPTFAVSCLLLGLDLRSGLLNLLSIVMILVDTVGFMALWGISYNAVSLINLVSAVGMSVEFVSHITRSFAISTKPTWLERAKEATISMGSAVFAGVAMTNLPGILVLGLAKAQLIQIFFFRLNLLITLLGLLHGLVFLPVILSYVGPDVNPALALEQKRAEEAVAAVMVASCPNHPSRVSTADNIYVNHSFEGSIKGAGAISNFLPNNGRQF
Method: (§1) rNPC1L1/HEK293 and TsA201 cells were seeded at a density of 10,000 cells per well in 96-well poly-D-lysine coated plates and cells were allowed to attach for approximately 18 h at 37° C. TsA201 cells were subsequently transfected with dog NPC1L1/pcDNA5/FRT according to the manufacturer's instructions (Roche) and incubated for 3 days at 37° C. MDCKII-derived, LLC-PKI, HepG2, or CaCo-2 cells were seeded at a density of 25,000 cells per well in 96-well tissue culture treated plates, and cells were allowed to attach and differentiate for approximately 72 h at 37° C., except for CaCo-2 cells where differentiation took approximately 14 days at 37° C. […] Duplicate samples were averaged for each experimental point. […] Dissociation kinetics were determined by addition of 100 μM EZE-gluc, and incubating for different periods of time. Nonspecific binding was defined in the presence of 100 μM EZE-gluc. At the end of the incubation period, cells were washed twice with 200 μl of pre-warmed DMEM to separate bound from free ligand, 1% SDS was added to the wells followed by 5 ml of Scintillant, and radioactivity associated with cells was determined using a β-counter. […] Thereafter, plates were placed on ice and cells were washed twice with ice-cold PBS, followed by ice-cold acid wash with DMEM, pH 3.5, for 1, 5 or 15 minutes. […] For Transwell experiments, MDCKII cells were seeded at 200,000 cells/well in a 24-well plate and incubated for 3 days at 37° C. […] Thereafter, both apical and basolateral compartments were washed three times with PBS, and the Transwell filter was cut out and its associated radioactivity determined using afi-counter. Data from saturation, competition and ligand dissociation experiments were analyzed as described in the literature; see, Priest, et al., 2004 Biochemistry 43:9866-9876; Knaus et al., 1995 Biochemistry 34:13627-13634. The association rate, k1, was determined by employing the pseudo-first-order rate equation k1=kobs([LR]e/[L][LR]max)) where [LR]max is the concentration of the complex at equilibrium, [L] is the concentration of ligand, [LR]max is the total receptor concentration, kobs is the slope of the pseudo-first order plot, ln([LR]e/([LR]e−[LR]t)) versus time, and [LR]t is the receptor-ligand complex at one given time point t.
To validate MDCKII cells as an appropriate surrogate system for monitoring NPC1L1-dependent processes, we evaluated their ability to perform EZE-sensitive cholesterol flux using a similar protocol to that recently reported. This assay makes use of the ability of βmCD to deplete membrane-bound cholesterol. […]
(§2) To further characterize the [^3H] cholesterol influx process into MDCK cells, the potency of EZE-like compound PS for inhibiting [^3H] cholesterol uptake was determined.

[2] = biological target: T1, human NPC1L1; experiment: [3H]cholesterol flux into hNPC1L1/MDCKII-Flp cells; assay type: cell-based; settings: hNPC1L1/MDCKII-Flp, FIG. 7D; read-out: IC50 block of [3H]cholesterol flux
Method: Flux assays were performed essentially as described by Yu et al., 2006 J Biol. Chem. 281:6616-6624. Briefly, cell growth medium was completely aspirated and replaced with 200 μl of 5% LPDS containing the appropriate concentration of compound and incubated at 37° C./3 h in a 5% CO2 incubator. Media was subsequently aspirated from cells and cells were incubated in 200 μl of 0-5.5% βmCD dissolved and filtered through a […] filter at 37° C./45 minutes in a 5% CO2 incubator. Media was dumped from cells that were then washed twice with 125 μl of 5% LPDS before media was aspirated and [3H]cholesterol complexed to BSA in 5% LPDS was added; see Yu et al., 2006 J. Biol. Chem. 281:6616-6624. After 45 minute incubation, cells were washed twice with DMEM, thoroughly aspirated and then 1% SDS was added prior to extraction for scintillation counting.
To validate MDCKII cells as an appropriate surrogate system for monitoring NPC1L1-dependent processes, we evaluated their ability to perform EZE-sensitive cholesterol flux using a similar protocol to that recently reported. This assay makes use of the ability of βmCD to deplete membrane-bound cholesterol. Subsequent exposure of cells to [^3H] cholesterol provides a time-dependent flux of this substrate into the cells. […] In an attempt to improve the assay window, a stable MDCKII-Flp cell line over-expressing human NPC1L1, hNPC1L1/MDCKII-Flp, was generated.
as §2

[3] = biological target: dog NPC1L1 endogenously expressed in MDCKII cells (Canis lupus familiaris, UniProt A0A8I3RZG1); experiment: [3H]AS binding to MDCKII cells (saturation, kinetics, competition, acid wash)
Method: as §1

[4] = biological target: T2, rat NPC1L1 (Rattus norvegicus, UniProt Q6T3U3); experiment: [3H]AS binding to rNPC1L1/HEK293 cells (saturation, kinetics, competition, acid wash)
T2 construct: expressed in transfected cells
Method: rNPC1L1/HEK293 and TsA201 cells were seeded at a density of 10,000 cells per well in 96-well poly-D-lysine coated plates and cells were allowed to attach for approximately 18 h at 37° C. TsA201 cells were subsequently transfected with dog NPC1L1/pcDNA5/FRT according to the manufacturer's instructions (Roche) and incubated for 3 days at 37° C. MDCKII-derived, LLC-PKI, HepG2, or CaCo-2 cells were seeded at a density of 25,000 cells per well in 96-well tissue culture treated plates, and cells were allowed to attach and differentiate for approximately 72 h at 37° C., except for CaCo-2 cells where differentiation took approximately 14 days at 37° C. […] Duplicate samples were averaged for each experimental point. […] To determine the kinetics of ligand association, cells were incubated with [^3H]AS for different periods of time. Dissociation kinetics were determined by addition of 100 μM EZE-gluc, and incubating for different periods of time. Nonspecific binding was defined in the presence of 100 μM EZE-gluc. At the end of the incubation period, cells were washed twice with 200 μl of pre-warmed DMEM to separate bound from free ligand, 1% SDS was added to the wells followed by 5 ml of Scintillant, and radioactivity associated with cells was determined using a β-counter. […] Thereafter, plates were placed on ice and cells were washed twice with ice-cold PBS, followed by ice-cold acid wash with DMEM, pH 3.5, for 1, 5 or 15 minutes. […] For Transwell experiments, MDCKII cells were seeded at 200,000 cells/well in a 24-well plate and incubated for 3 days at 37° C. […] Thereafter, both apical and basolateral compartments were washed three times with PBS, and the Transwell filter was cut out and its associated radioactivity determined using afi-counter. Data from saturation, competition and ligand dissociation experiments were analyzed as described in the literature; see, Priest, et al., 2004 Biochemistry 43:9866-9876; Knaus et al., 1995 Biochemistry 34:13627-13634. The association rate, k1, was determined by employing the pseudo-first-order rate equation k1=kobs([LR]e/[L][LR]max)) where [LR]max is the concentration of the complex at equilibrium, [L] is the concentration of ligand, [LR]max is the total receptor concentration, kobs is the slope of the pseudo-first order plot, ln([LR]e/([LR]e−[LR]t)) versus time, and [LR]t is the receptor-ligand complex at one given time point t.
Incubation of rNPC1L1/HEK293 cells with 5 nM [311]AS results in a time-dependent association of ligand with cells that reaches equilibrium in ˜3 h (FIG. 1B). The nonspecific binding component is time-independent and has been subtracted from the experimental data. A semilogarithmic transformation of the data yielded a linear dependence (FIG. 1B, inset), as expected for a pseudo-first order reaction, and the slope of this line gives kobs of 0.0208 min^−1. The association rate constant, k1, calculated as described under Example 3, is 2.4×10^6 M^−1 min^−1.
Ki values, determined as described above, are presented in Table 1 below and display the expected rank order of potency for interaction of these ligands with rat NPC1L1; Garcia-Calvo et al., 2005 Proc. Natl. Acad. Sci. USA 102:8132-8137.
Such an approach has previously been previously used to characterize cell surface, non-covalent interactions; Hopkins & Trowbridge, 1983 J. Cell Biol. 97:508-521; Chen et al., 1998 Proc. Natl. Acad. USA 95:6373-6378.

[5] = biological target: dog NPC1L1 (Canis lupus familiaris, UniProt A0A8I3RZG1); experiment: [3H]AS binding to dog NPC1L1 transiently expressed in TsA201 cells
Method: as §1
To further validate this statement, cloned dog NPC1L1 was transiently expressed in TsA201 cells and binding of [^3]AS to these cells was then characterized (FIG. 5 and Table 1).

[6] = system: surface expression of NPC1L1 in MDCKII cells; experiment: Effect of lovastatin on surface expression of NPC1L1 ([3H]AS binding) in MDCKII cells; assay type: cell-based, dog; settings: 4 μM lovastatin; for effect on [3H]AS binding: cells grown in 5% LPDS, 72 h
Method: To determine whether the expression pattern of NPC1L1 in MDCKII cells is sensitive to changes in the endogenous concentration of cholesterol, MDCKII cells were seeded and grown in either 10% FBS or 5% lipoprotein deficient serum (5% LPDS) in the absence or presence of the HMG CoA reductase inhibitor, lovastatin.

Sequence of dog NPC1L1 endogenously expressed in MDCKII cells (A0A8I3RZG1 entry or part of it): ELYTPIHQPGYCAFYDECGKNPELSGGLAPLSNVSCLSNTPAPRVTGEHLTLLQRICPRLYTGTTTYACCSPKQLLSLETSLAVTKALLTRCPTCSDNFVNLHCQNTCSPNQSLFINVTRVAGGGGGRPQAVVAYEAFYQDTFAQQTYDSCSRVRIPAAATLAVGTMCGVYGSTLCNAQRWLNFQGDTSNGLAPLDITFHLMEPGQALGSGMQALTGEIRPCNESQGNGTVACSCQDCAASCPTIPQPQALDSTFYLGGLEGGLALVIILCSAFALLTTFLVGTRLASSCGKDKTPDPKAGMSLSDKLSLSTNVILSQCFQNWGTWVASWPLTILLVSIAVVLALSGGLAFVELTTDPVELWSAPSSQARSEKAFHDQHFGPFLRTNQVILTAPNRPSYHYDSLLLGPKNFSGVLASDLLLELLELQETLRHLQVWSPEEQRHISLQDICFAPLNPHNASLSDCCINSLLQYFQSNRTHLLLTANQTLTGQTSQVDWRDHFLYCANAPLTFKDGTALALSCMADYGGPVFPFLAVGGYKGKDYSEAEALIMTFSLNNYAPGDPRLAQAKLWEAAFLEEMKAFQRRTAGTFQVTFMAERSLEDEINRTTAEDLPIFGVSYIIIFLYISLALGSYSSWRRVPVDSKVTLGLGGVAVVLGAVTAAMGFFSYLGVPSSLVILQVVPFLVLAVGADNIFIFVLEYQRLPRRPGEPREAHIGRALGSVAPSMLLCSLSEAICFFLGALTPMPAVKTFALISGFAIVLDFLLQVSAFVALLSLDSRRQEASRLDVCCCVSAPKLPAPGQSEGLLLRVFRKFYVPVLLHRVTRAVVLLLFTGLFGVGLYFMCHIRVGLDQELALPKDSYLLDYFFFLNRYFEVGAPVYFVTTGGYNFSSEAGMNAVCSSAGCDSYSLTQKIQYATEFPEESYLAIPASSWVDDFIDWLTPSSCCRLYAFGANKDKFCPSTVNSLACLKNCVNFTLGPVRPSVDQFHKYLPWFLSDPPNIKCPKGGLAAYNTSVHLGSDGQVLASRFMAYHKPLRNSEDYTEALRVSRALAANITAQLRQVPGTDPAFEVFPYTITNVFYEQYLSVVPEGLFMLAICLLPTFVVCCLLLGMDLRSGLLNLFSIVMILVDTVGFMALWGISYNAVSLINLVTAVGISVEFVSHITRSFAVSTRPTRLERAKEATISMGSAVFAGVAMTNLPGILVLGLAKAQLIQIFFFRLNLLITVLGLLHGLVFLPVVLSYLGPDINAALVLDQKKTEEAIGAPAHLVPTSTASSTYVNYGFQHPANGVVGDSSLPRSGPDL
Sequence of dog NPC1L1 (A0A8I3RZG1 entry or part of it): as above

Ki [1]: > 100000 nM | IC50 [2]: > 100000 nM
Structure (SMILES): O=C(O)C1OC(Oc2ccc(C3C(CCC(O)c4ccc(F)cc4)C(=O)N3c3ccc(F)cc3)cc2)C(O)C(O)C1O (single isomer, unassigned; ent-1) [ent-1]

IC50 ([3]; 5.49 nM [3H]AS, 4 h, 37° C., read-out: IC50 inhibition of [3H]AS binding): 2.86 nM | Ki ([3]; MDCKII cells): 0.34 ± 0.04 nM | Kd ([3]; MDCKII cells, increasing [3H]AS, 4 h, 37° C.): 0.59 ± 0.07 nM | IC50 ([4]; 5.36 nM [3H]AS, 4 h, 37° C., read-out: IC50 inhibition of [3H]AS binding): 5.25 nM | Ki ([4]; rNPC1L1/HEK293 cells): 2.35 ± 0.49 nM | Kd ([4]; rNPC1L1/HEK293 cells, increasing [3H]AS, 4 h, 37° C., read-out: Kd (equilibrium dissociation constant, saturation binding)): 4.62 ± 0.69 nM | IC50 ([5]; 4.65 nM [3H]AS, 4 h, 37° C., read-out: IC50 inhibition of [3H]AS binding): 3.79 nM | Kd ([5]; dog NPC1L1/TsA201 cells, read-out: Kd (saturation binding)): 2.15 ± 0.39 nM | Ki ([5]; dog NPC1L1/TsA201 cells, read-out: Ki (competition with [3H]AS)): 1 ± 0.11 nM
Structure (SMILES): CS(=O)(=O)NCCCc1ccc(N2C(=O)[C@H](CC[C@H](O)c3ccc(F)cc3)[C@H]2c2ccc(O[C@@H]3O[C@H](C(=O)O)[C@@H](O)[C@H](O)[C@H]3O)cc2)cc1 [AS, 4-[(2S,3R)-3-[(3S)-3-(4-fluorophenyl)-3-hydroxypropyl]-1-(4-{3-[(methylsulfonyl)amino]propyl}phenyl)-4-oxoazetidin-2-yl]phenyl β-D-gluteopyranosiduronic acid]

Structure (SMILES): CC[C@H](C)C(=O)O[C@H]1C[C@@H](C)C=C2C=C[C@H](C)[C@H](CC[C@@H]3C[C@@H](O)CC(=O)O3)[C@H]21 [lovastatin]
effect on [3H]AS binding [6]: doubles | effect on [3H]AS binding ([6]; listed as Lovastatin): increase | effect on surface expression of NPC1L1 ([6]; cells grown in 10% FBS): does not cause any significant effect
